From patent publication US7671238B2, “Arylamino-arylpropanolamine derivatives and methods of their use” (Wyeth LLC, priority 2006, dated 2010)
Structures can show the parent of a compound that is named as a salt.

Each compound was assayed against T1, hNET (Homo sapiens, UniProt P23975) (assay: Norepinephrine (NE) uptake assay in MDCK-Net6 cells). Conditions: 1 μM test compound; MDCK-Net6 cells stably transfected with human hNET; [3H]NE uptake.
T1 construct: expressed in transfected cells; host or cells: MDCK-Net6 (MDCK cells stably transfected with hNET)
Assay type: cell-based
Experimental: Cells were plated at 300,000 T75 flask and cells were split twice weekly. […] Cells were plated at 250,000 cells/T75 flask and split twice weekly.
On day 1, cells were plated at 3,000 cells/well in growth medium and maintained in a cell incubator (37° C., 5% CO2). On day 2, growth medium was replaced with […] of assay buffer (25 mM HEPES; 120 mM NaCl; 5 mM KCl; 2.5 mM CaCl2; 1.2 mM MgSO4; 2 mg/ml glucose (pH 7.4, 37° C.)) containing 0.2 mg/ml ascorbic acid and […]. Plates containing cells with […] of assay buffer were equilibrated for 10 minutes at 37° C. prior to addition of compounds. A stock solution of desipramine was prepared in DMSO (10 mM) and delivered to triplicate wells containing cells for a final test concentration of 1 μM. Data from these wells were used to define non-specific NE uptake (minimum NE uptake). Test compounds were prepared in DMSO (10 mM) and diluted in assay buffer according to test range (1 to 10,000 nM). Twenty-five microliters of assay buffer (maximum NE uptake) or test compound were added directly to triplicate wells containing cells in 200 μl of assay buffer. The cells in assay buffer with test compounds were incubated for 20 minutes at 37° C. To initiate the NE uptake, [^3H]NE diluted in assay buffer (120 nM final assay concentration) was delivered in 25 μl aliquots to each well and the plates were incubated for 5 minutes (37° C.). The reaction was terminated by decanting the supernatant from the plate. The plates containing cells were washed twice with 200 μl assay buffer (37° C.) to remove free radioligand. The plates were then inverted, left to dry for 2 minutes, then reinverted and air-dried for an additional 10 minutes. The cells were lysed in 25 μl of 0.25 N NaOH solution (4° C.), placed on a shake table and vigorously shaken for 5 minutes. After cell lysis, 75 μl of scintillation cocktail was added to each well and the plates were sealed with film tape. The plates were returned to the shake table and vigorously shaken for a minimum of 10 minutes to ensure adequate partitioning of organic and aqueous solutions. The plates were counted in a Wallac Microbeta counter (PerkinElmer) to collect the raw cpm data.
For each experiment, a data stream of cpm values collected from the Wallac Microbeta counter was downloaded to a Microsoft Excel statistical application program. Calculations of EC50 values were made using the transformed-both-sides logistic dose response program written by Wyeth Biometrics Department.

T1 sequence (P23975 whole entry): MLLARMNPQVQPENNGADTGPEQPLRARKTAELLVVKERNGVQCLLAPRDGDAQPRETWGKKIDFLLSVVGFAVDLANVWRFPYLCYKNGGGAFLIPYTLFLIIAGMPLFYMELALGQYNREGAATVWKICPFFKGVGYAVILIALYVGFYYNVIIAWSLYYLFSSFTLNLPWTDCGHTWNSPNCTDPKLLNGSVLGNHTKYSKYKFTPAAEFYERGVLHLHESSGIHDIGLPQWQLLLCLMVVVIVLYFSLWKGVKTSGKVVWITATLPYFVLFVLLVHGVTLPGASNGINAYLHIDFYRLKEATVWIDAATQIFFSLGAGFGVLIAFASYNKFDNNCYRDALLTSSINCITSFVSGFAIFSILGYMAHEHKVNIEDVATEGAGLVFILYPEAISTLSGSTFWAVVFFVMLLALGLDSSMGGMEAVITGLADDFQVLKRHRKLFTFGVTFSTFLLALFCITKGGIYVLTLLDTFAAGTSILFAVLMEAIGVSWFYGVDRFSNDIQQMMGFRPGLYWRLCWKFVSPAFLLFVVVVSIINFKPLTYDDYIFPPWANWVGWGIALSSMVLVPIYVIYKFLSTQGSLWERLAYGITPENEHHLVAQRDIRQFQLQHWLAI

Compound | inhibition at 1 µM
Cc1cccc(N(C)[C@@H](c2ccccc2)[C@H](O)CN)c1 (racemic) [Example 2, (1RS,2SR)-3-amino-1-[methyl(3-methylphenyl)amino]-1-phenylpropan-2-ol hydrochloride] | 92%
CN(c1ccccc1Cl)[C@@H](c1ccccc1)[C@H](O)CN (racemic) [Example 3, (1RS,2SR)-3-amino-1-[(2-chlorophenyl)(methyl)amino]-1-phenylpropan-2-ol hydrochloride] | 45%
COc1cccc(N(C)[C@@H](c2ccccc2)[C@H](O)CN)c1 (racemic) [Example 4, (1RS,2SR)-3-amino-1-[(3-methoxyphenyl)(methyl)amino]-1-phenylpropan-2-ol hydrochloride] | 86%
COc1ccc([C@@H]([C@H](O)CN)N(C)c2ccc(Cl)cc2)cc1 (racemic) [Example 6, (1RS,2SR)-3-amino-1-[(4-chlorophenyl)(methyl)amino]-1-(4-methoxyphenyl)propan-2-ol hydrochloride] | 92%
CNC[C@@H](O)[C@H](c1cccc(F)c1)N(C)c1ccc(Cl)cc1 (racemic) [Example 23, (1RS,2SR)-1-[(4-chlorophenyl)(methyl)amino]-1-(3-fluorophenyl)-3-(methylamino)propan-2-ol hydrochloride] | 99%
CNC[C@@H](O)[C@H](c1ccc(OC)cc1)N(C)c1cccc(F)c1 (racemic) [Example 24, (1RS,2SR)-1-[(3-fluorophenyl)(methyl)amino]-1-(4-methoxyphenyl)-3-(methylamino)propan-2-ol hydrochloride] | 92%
CNC[C@@H](O)[C@H](c1ccc(OC)cc1)N(C)c1ccc(Cl)cc1 (racemic) [Example 25, (1RS,2SR)-1-[(4-chlorophenyl)(methyl)amino]-1-(4-methoxyphenyl)-3-(methylamino)propan-2-ol hydrochloride] | 97%
CNC[C@@H](O)[C@H](c1ccc(OC)cc1)N(C)c1ccc(OC)cc1 (racemic) [Example 26, (1RS,2SR)-1-(4-methoxyphenyl)-1-[(4-methoxyphenyl)(methyl)amino]-3-(methylamino)propan-2-ol hydrochloride] | 75%
CCNC[C@@H](O)[C@H](c1ccccc1)N(C)c1ccc(C)cc1 (racemic) [Example 28, (1RS,2SR)-3-(ethylamino)-1-[methyl(4-methylphenyl)amino]-1-phenylpropan-2-ol hydrochloride] | 71%
CCNC[C@@H](O)[C@H](c1ccc(OC)cc1)N(C)c1ccc(Cl)cc1 (racemic) [Example 29, (1RS,2SR)-1-[(4-chlorophenyl)(methyl)amino]-3-(ethylamino)-1-(4-methoxyphenyl)propan-2-ol hydrochloride] | 95%
CCNC[C@@H](O)[C@H](c1cccc(Cl)c1)N(C)c1ccccc1 (racemic) [Example 30, (1RS,2SR)-1-(3-chlorophenyl)-3-(ethylamino)-1-[methyl(phenyl)amino]propan-2-ol hydrochloride] | 56%
CCNC[C@@H](O)[C@H](c1ccc(Cl)cc1)N(C)c1ccccc1 (racemic) [Example 31, (1RS,2SR)-1-(4-chlorophenyl)-3-(ethylamino)-1-[methyl(phenyl)amino]propan-2-ol hydrochloride] | 88%
Cc1ccc(N(C)[C@@H](c2ccccc2)[C@H](O)CN(C)C)cc1 (racemic) [Example 32, (1RS,2SR)-3-(dimethylamino)-1-[methyl (4-methylphenyl)amino]-1-phenylpropan-2-ol hydrochloride] | 95%
